Where two headings read alike, the source gives them in different places.
Assays:
[1] = biological target: Cys242 in human PIK3CA (157-299) (Homo sapiens (Human), UniProt P42336); assay: Covalent modification assay using MALDI-TOF MS; type: biochemical; settings: 4 h reaction time point
Summary of the method: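 PIK3CA (157-299), 3.33 or 1 μM in 20 mM HEPES, 150 mM NaCl, 2 mM MgCl2, pH 7.3, was incubated with compound at room temperature in the dark for 15 min, 30 min, 2 h or 4 h. Linear MALDI-TOF read-out; % modification = adduct peak height over summed heights of all protein species.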

[2] = tested on: pAKT in BT474 cells; assay: Cell-based pAKT HTRF assay in BT474 cells; settings: BT474 cells, 4 hr incubation, read-out: pAKT inhibition IC50 in BT474 cells
Summary of the method: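 Compound titration: 3 μM downward in 3-fold steps, nine points, 4 hr on cells. Detection: lysis, then d2 plus Eu Cryptate antibody mix, room-temperature incubation of 4–24 h, and time-resolved fluorescence read at 615 nm.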

[3] = 1 μM protein target, 1:5 protein to compound ratio (compounds 853-1279)
[4] = 3.33 μM protein target, 1:7.5 protein to compound ratio (compounds 1-852)

Cys242 in human PIK3CA (157-299), sequence (P42336 157-299): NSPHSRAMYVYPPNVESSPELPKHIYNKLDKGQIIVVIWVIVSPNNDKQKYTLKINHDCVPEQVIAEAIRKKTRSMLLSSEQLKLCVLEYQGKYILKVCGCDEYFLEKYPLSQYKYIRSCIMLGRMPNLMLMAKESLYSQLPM

Structure (SMILES) | % of modification [1, 3] | IC50 ([2]; Compounds 1000-1279) [nM] | % of modification [1, 4] | IC50 ([2]; Compounds 10-999) [nM]
C=CC(=O)N1CCn2nc(-c3nc(-c4ccc(OCCN(C)C)cc4F)c4ccsc4c3-c3c(F)cc(F)cc3OCCOC)cc2C1C (stereo not drawn) [Compound 1091] | A (percent of modification of PIK3CA protein ≥75%) | < 100 |  | 
C=CC(=O)N1CCc2ncc(-c3nc(-c4cnnc(C)c4)c4ccsc4c3-c3c(F)cc(F)cc3OCCOC)cc2C1 [Compound 383] |  |  | A (percent of modification of PIK3CA protein ≥75%) | < 100
C=CC(=O)N1CCc2ccc(-c3nc(-c4ccc5c(c4)CCN(CC(F)F)CC5)c4ccsc4c3-c3c(F)cc(F)cc3OCCOC)cc2C1 [Compound 1271] | D (percent of modification <25%) | > 1000 |  | 
C=CC(=O)N1CCn2nc(-c3nc(-c4cnc5cn(C)nc5c4)c4ccsc4c3-c3c(F)cc(F)cc3OCCO)cc2C1C (stereo not drawn) [Compound 913] | A (percent of modification of PIK3CA protein ≥75%) |  |  | < 100
C=CC(=O)N1Cc2cc(-c3nc(-c4cnnc(C)c4)c4ccsc4c3-c3c(F)cc(F)cc3OCCO)nn2C(C)C1 (stereo not drawn) [Compound 787] |  |  | D (percent of modification <25%) | 100 to 1000
C=CC(=O)N1CCn2nc(-c3nc(-c4ccc5c(C)n(C)nc5c4)c4ccsc4c3-c3c(F)cc(F)cc3OCCO)cc2C1C (stereo not drawn) [Compound 1076] | A (percent of modification of PIK3CA protein ≥75%) | < 100 |  | 
C=CC(=O)N1Cc2cc(-c3nc(-c4ccc5c(c4)CCN(C)C5)c4ccsc4c3-c3c(F)cc(F)cc3OCC)nn2CC1C (stereo not drawn) [Compound 503] |  |  | A (percent of modification of PIK3CA protein ≥75%) | < 100
C=CC(=O)N1CCn2nc(-c3nc(-c4ccn5cncc5c4)c4ccsc4c3-c3c(F)cc(F)cc3OCCOC)cc2C1C (stereo not drawn) [Compound 1074] | A (percent of modification of PIK3CA protein ≥75%) | < 100 |  | 
C=CC(=O)N1CCn2nc(-c3nc(-c4cnn(C)c4)c4ccsc4c3-c3c(F)cc(F)cc3OCCOC)cc2[C@H]1C [Compound 584] |  |  | A (percent of modification of PIK3CA protein ≥75%) | < 100
C=CC(=O)N1CCn2nc(-c3nc(N4CC5CCC(C4)N5C(C)=O)c4ccsc4c3-c3c(F)cc(F)cc3OCCOC)cc2C1C (stereo not drawn) [Compound 1064] | C (25%≤percent of modification <50%) | 100 to 1000 |  | 
C=CC(=O)N1CC(n2cc(-c3nc(-c4ccc5c(c4)CCNC5)c4ccsc4c3-c3ccc(F)cc3C(F)F)cn2)C1 [Compound 120] |  |  | A (percent of modification of PIK3CA protein ≥75%) | 100 to 1000
C=CC(=O)N1CCc2ncc(-c3nc(-c4ccc5c(c4)CCNCC5)c4ccsc4c3-c3ccc(F)cc3OC)cc2C1 [Compound 103] |  |  | A (percent of modification of PIK3CA protein ≥75%) | 100 to 1000
CC#CC(=O)N1CCc2nc(-c3nc(-c4ccc5c(c4)CCNC5)c4ccsc4c3-c3ccc(F)cc3OCCOC)sc2C1 [Compound 127] |  |  | D (percent of modification <25%) | 1000 to 3000
C=CC(=O)N1CCn2nc(-c3nc(N4CC5(CCNC(=O)C5)C4)c4ccsc4c3-c3c(F)cc(F)cc3OCCOC)cc2C1C (stereo not drawn) [Compound 1088] | B (50%<percent of modification <75%) | 100 to 1000 |  | 
C=CC(=O)N1CCn2nc(-c3nc(-c4ccc5c(c4)ncn5C)c4ccsc4c3-c3c(F)cc(F)cc3OCCO)cc2[C@H]1C [Compound 651] |  |  | C (25%≤percent of modification <50%) | < 100
C=CC(=O)N1Cc2cc(-c3nc(-c4cnn(C)c4)c4ccsc4c3-c3c(F)cc(F)cc3OCCO)nn2C[C@H]1C [Compound 674] |  |  | A (percent of modification of PIK3CA protein ≥75%) | < 100
C=CC(=O)N1CCn2nc(-c3nc(-c4ccnc(N)c4)c4ccsc4c3-c3ccc(F)cc3OCCOC)nc2C1 [Compound 193] |  |  | A (percent of modification of PIK3CA protein ≥75%) | < 100
C=CC(=O)N1CCc2nc(-c3nc(-c4ccc(C(C)(C)C#N)cc4)c4ccsc4c3-c3c(F)cc(F)cc3OCCOC)sc2C1 [Compound 439] |  |  | D (percent of modification <25%) | 100 to 1000

— patent US20250230138A1, “COMPOUNDS HAVING A T-STRUCTURE FORMED BY AT LEAST FOUR CYCLES FOR USE IN THE TREATMENT OF CANCER AND OTHER INDICATIONS” (TheRas, Inc., priority 2022, published 2025)
